Measurements reported in ChEMBL document CHEMBL5715949, “Discovery of a selective irreversible BMX inhibitor for prostate cancer” (ACS Chem Biol, 2013).
Activity calls are given as the source filed them. No cut-off for these calls is given here.

Columns and labels:
[1] = target: Phosphatidylinositol 4,5-bisphosphate 3-kinase catalytic subunit beta isoform (Homo sapiens) (UniProt P42338); experiment: Inhibition of PIK3CB (unknown origin) assessed as remaining activity at 1 uM by Kinome scan method relative to control
[2] = target: Serine/threonine-protein kinase TAO2 (Homo sapiens) (UniProt Q9UL54); experiment: Inhibition of TAOK2 (unknown origin) assessed as remaining activity at 1 uM by Kinome scan method relative to control
[3] = target: Serine/threonine-protein kinase RIO3 (Homo sapiens) (UniProt O14730); experiment: Inhibition of RIOK3 (unknown origin) assessed as remaining activity at 1 uM by Kinome scan method relative to control
[4] = system: Mast/stem cell growth factor receptor Kit (Homo sapiens), P10721 [D816V]; experiment: Inhibition of KIT D816V mutant (unknown origin) assessed as remaining activity at 1 uM by Kinome scan method relative to control
[5] = target: TRAF2 and NCK-interacting protein kinase (Homo sapiens) (UniProt Q9UKE5); experiment: Inhibition of TNIK (unknown origin) assessed as remaining activity at 1 uM by Kinome scan method relative to control
RV-1 = experiment: Antiproliferative activity against human RV-1 cells assessed as reduction in cell viability at 500 to 2500 nM incubated for 5 days in presence of AZD8055 by CellTiter-Glo assay; type: functional, cell-based; conditions: dose 500-2500 nM, time 5.0 day
[6] = target: Serine/threonine-protein kinase PAK 2 (Homo sapiens) (UniProt Q13177); experiment: Inhibition of PAK2 (unknown origin) assessed as remaining activity at 1 uM by Kinome scan method relative to control
[7] = target: Tyrosine-protein kinase ZAP-70 (Homo sapiens) (UniProt P43403); experiment: Inhibition of ZAP70 (unknown origin) assessed as remaining activity at 1 uM by Kinome scan method relative to control
[8] = Induction of cell cycle arrest in human RV-1 cells assessed as accumulation of cells at G2/M phase at 2.5 uM incubated for 5 days in presence of MK2206 by propidium iodide staining based flow cytometric analysis (reference value: 11.4 %); type: functional; conditions: time 5 day
[9] = target: Platelet-derived growth factor receptor alpha (Homo sapiens) (UniProt P16234); experiment: Inhibition of PDGFRalpha (unknown origin) assessed as remaining activity at 1 uM by Kinome scan method relative to control
[10] = target: STE20/SPS1-related proline-alanine-rich protein kinase (Homo sapiens) (UniProt Q9UEW8); experiment: Inhibition of STK39 (unknown origin) assessed as remaining activity at 1 uM by Kinome scan method relative to control
[11] = target: Bone morphogenetic protein receptor type-1A (Homo sapiens) (UniProt P36894); experiment: Inhibition of BMPR1A (unknown origin) assessed as remaining activity at 1 uM by Kinome scan method relative to control
BaF3 = experiment: Antiproliferative activity against mouse BaF3 cells expressing TEL-fused JAK1 assessed growth inhibition incubated for 2 to 5 days by CellTiter-Glo assay; type: functional; conditions: time 2-5 day
[12] = target: Rho-associated protein kinase 1 (Homo sapiens) (UniProt Q13464); experiment: Inhibition of ROCK1 (unknown origin) assessed as remaining activity at 1 uM by Kinome scan method relative to control
Rho-associated protein kinase 1 (Homo sapiens), sequence (Q13464 2-1354 limits assumed): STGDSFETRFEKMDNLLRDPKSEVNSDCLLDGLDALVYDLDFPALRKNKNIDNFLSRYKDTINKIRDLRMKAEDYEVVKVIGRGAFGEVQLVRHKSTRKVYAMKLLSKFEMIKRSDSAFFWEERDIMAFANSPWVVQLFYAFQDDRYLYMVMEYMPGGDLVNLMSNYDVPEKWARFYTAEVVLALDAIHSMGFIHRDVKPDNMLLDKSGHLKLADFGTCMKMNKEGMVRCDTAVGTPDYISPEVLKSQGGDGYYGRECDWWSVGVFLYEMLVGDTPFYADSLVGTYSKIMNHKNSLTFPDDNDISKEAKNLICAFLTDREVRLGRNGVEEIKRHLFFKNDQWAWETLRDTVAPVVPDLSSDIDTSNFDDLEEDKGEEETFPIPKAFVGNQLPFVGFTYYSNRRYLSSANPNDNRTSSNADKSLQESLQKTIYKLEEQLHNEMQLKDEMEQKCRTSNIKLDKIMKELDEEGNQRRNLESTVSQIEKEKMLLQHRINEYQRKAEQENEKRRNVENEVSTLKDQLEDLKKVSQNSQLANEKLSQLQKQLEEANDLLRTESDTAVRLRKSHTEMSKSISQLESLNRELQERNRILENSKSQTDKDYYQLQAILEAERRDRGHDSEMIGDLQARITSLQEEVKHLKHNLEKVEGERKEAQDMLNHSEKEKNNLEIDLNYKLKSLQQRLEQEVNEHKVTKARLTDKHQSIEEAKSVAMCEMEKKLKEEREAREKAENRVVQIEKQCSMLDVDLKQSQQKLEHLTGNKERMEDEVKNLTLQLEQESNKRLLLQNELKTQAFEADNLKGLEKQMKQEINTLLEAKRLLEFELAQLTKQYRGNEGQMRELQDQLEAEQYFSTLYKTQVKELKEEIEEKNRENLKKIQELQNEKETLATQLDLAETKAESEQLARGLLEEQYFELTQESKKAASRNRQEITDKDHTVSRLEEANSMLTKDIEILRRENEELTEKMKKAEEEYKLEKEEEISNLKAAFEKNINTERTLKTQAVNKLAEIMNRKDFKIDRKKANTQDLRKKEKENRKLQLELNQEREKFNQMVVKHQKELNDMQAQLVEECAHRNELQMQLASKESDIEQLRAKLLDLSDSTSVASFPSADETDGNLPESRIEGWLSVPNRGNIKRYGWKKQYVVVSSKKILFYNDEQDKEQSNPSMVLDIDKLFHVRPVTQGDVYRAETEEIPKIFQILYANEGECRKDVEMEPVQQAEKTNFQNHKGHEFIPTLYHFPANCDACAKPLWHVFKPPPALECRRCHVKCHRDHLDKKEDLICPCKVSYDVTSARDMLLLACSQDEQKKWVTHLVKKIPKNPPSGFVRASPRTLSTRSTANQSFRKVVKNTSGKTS

Phosphatidylinositol 4,5-bisphosphate 3-kinase catalytic subunit beta isoform (Homo sapiens), sequence (P42338 whole entry, looked up, canonical isoform): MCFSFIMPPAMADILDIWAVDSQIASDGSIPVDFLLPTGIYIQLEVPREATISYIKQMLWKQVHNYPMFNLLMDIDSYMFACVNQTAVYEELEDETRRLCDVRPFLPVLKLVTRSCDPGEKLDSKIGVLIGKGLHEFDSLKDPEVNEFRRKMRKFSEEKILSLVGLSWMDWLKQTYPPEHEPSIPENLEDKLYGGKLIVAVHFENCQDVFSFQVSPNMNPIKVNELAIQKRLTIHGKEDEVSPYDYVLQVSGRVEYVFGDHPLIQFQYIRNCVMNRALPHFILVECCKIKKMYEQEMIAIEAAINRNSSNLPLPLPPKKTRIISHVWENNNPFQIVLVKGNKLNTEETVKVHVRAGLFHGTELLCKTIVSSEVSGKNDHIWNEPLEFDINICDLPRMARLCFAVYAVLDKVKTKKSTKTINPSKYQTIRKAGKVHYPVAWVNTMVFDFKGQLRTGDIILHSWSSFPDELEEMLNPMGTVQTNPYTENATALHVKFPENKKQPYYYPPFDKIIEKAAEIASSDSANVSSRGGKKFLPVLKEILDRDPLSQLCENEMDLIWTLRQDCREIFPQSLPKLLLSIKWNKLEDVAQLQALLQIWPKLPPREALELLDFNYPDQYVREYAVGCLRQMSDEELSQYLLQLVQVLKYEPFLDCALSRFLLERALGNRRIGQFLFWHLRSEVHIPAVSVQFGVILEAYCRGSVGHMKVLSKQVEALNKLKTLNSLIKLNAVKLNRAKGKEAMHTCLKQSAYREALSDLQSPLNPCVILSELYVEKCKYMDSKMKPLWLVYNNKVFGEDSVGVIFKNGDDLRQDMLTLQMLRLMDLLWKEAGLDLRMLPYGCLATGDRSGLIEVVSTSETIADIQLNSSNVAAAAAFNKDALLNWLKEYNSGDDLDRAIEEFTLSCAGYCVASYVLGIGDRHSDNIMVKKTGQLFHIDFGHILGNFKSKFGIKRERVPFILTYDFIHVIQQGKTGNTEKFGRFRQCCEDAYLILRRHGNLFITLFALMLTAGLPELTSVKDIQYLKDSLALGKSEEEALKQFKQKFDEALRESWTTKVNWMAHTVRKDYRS
Platelet-derived growth factor receptor alpha (Homo sapiens), sequence (P16234 whole entry): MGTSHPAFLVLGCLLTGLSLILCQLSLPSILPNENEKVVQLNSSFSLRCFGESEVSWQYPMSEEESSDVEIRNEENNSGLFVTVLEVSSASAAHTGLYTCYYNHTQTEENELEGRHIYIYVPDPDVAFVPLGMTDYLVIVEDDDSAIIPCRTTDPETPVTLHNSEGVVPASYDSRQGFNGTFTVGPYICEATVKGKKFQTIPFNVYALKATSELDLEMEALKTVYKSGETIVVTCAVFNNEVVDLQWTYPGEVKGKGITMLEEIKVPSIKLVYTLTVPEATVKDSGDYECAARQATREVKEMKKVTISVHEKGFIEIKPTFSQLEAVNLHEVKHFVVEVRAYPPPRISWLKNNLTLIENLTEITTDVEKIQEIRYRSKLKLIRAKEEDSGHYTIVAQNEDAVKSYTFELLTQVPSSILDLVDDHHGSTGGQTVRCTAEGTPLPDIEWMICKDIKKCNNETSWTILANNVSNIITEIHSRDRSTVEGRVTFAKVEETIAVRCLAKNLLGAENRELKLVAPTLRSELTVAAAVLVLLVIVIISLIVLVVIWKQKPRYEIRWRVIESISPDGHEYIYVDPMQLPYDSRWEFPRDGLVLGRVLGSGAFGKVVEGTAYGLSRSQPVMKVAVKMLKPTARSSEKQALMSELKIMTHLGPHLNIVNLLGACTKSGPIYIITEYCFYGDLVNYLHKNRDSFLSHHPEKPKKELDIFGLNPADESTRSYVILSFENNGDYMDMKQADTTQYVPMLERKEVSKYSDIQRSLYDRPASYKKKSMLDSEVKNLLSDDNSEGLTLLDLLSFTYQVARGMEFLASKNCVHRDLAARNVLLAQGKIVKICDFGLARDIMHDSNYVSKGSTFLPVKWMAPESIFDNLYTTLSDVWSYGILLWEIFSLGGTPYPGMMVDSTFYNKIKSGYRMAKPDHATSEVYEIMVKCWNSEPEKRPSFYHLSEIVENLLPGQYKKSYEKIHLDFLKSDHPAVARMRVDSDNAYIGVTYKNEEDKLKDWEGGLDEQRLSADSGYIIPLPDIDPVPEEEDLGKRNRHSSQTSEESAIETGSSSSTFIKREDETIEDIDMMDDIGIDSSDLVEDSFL
Bone morphogenetic protein receptor type-1A (Homo sapiens), sequence (P36894 whole entry, the tested form may be a part): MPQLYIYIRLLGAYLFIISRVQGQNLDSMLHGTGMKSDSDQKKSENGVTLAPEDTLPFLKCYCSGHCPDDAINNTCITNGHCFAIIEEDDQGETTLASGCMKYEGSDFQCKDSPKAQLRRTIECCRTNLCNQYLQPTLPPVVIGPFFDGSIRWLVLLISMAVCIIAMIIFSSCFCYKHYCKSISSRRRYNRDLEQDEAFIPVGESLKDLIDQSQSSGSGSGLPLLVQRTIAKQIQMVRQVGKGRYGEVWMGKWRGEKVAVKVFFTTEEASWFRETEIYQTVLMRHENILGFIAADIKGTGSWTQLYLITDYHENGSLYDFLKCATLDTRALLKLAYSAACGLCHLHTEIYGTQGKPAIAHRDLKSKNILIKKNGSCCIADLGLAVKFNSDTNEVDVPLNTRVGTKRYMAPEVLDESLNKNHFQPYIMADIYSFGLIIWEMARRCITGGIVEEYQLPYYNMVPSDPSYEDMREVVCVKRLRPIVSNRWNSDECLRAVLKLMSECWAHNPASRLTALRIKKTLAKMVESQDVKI
Serine/threonine-protein kinase PAK 2 (Homo sapiens), sequence (Q13177 whole entry): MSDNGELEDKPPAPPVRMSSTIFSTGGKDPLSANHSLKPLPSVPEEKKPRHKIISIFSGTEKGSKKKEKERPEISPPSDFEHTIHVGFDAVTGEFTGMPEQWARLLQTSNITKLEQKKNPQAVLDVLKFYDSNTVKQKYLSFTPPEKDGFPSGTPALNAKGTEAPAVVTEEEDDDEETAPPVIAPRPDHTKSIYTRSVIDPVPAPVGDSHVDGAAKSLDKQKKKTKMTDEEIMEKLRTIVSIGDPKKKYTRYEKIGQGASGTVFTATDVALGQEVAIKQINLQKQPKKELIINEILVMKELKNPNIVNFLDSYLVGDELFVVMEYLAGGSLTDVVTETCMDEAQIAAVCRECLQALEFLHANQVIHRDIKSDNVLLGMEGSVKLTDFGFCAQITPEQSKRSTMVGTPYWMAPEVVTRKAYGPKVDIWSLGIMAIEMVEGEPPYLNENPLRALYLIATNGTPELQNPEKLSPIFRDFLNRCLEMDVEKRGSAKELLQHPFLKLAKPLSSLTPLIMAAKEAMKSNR
Serine/threonine-protein kinase RIO3 (Homo sapiens), sequence (O14730 whole entry): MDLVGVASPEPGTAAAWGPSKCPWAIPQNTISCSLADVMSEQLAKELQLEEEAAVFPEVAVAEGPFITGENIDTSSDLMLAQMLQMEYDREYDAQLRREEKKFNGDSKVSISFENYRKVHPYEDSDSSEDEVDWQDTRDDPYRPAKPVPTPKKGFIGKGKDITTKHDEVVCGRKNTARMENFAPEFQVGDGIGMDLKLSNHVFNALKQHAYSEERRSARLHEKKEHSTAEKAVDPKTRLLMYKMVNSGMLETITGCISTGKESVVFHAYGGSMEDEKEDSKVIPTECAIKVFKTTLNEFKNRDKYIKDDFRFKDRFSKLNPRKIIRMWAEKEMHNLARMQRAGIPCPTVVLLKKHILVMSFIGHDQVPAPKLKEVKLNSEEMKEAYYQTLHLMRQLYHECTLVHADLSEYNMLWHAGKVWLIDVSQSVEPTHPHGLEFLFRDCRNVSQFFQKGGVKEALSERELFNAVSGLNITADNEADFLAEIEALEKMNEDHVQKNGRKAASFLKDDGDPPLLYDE

C=CC(=O)Nc1cc(-n2c(=O)ccc3cnc4ccc(-c5ccc(NS(C)(=O)=O)cc5)cc4c32)ccc1C
Activity [1]: 75%
Activity [2]: 80%
Activity [3]: 55%
Activity [4]: 69%
Activity [5]: 96%
Activity (RV-1): Active
Activity [6]: 78%
Activity [7]: 91%
Activity [8]: 11.5%
Activity [9]: 92%
Activity [10]: 68%
Activity [11]: 84%
GI50 (BaF3): 4.92 µM
Activity [12]: 56%
